For 23 molecules, IC50 and Ki results are on record in ChEMBL document CHEMBL1909046, “DrugMatrix in vitro pharmacology data”.

Test [1] has as its target T1, Alpha-2A adrenergic receptor (Homo sapiens, UniProt P08913). Also: in other assays of this panel Not Active means under 50% inhibition at 10 µM.
T1 sequence (P08913 whole entry): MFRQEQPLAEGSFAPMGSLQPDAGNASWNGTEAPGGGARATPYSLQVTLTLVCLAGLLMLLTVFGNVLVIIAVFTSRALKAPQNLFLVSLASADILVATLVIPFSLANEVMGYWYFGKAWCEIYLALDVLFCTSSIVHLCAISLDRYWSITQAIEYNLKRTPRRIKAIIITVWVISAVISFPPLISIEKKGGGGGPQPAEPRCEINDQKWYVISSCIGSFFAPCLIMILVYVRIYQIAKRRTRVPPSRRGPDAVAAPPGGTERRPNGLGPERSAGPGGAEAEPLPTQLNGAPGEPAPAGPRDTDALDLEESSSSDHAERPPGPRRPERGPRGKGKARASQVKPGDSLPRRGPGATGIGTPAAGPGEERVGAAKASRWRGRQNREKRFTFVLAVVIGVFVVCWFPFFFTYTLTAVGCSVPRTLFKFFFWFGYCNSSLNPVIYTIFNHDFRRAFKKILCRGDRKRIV
In kind it is cell membranes, Sf9, Membrane. The settings on record: sf9.

In test [2] the target is Sodium-dependent dopamine transporter (Homo sapiens, UniProt Q01959). Put plainly: DRUGMATRIX: Dopamine Transporter radioligand binding (ligand: [125I] RTI-55). In kind it is cell membranes, CHO-K1, Membrane. Conditions: cho-k1; Not Active = under 50% inhibition at 10 µM.
Sequence of Sodium-dependent dopamine transporter (Q01959 whole entry): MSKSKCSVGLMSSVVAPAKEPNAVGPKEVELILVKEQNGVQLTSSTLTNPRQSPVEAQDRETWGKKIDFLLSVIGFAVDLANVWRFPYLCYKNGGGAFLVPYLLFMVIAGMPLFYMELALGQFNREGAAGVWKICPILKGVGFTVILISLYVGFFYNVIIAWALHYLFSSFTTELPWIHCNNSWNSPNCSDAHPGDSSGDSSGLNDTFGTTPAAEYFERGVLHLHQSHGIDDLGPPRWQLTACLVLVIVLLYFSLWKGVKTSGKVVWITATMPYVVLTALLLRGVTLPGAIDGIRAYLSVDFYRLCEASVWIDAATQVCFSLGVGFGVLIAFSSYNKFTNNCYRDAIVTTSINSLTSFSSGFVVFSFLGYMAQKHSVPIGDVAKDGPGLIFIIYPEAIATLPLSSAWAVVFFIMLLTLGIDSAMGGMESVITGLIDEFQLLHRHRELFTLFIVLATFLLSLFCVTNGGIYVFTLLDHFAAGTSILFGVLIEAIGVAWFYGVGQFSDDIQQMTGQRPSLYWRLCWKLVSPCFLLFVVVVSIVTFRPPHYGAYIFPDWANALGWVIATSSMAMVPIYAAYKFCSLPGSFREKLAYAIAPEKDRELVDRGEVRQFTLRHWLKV
The target in a further test is Mu-type opioid receptor (Homo sapiens, UniProt P35372). Put plainly: DRUGMATRIX: Opiate mu (OP3, MOP) radioligand binding (ligand: [3H] Diprenorphine). The settings on record: cho-k1; Not Active = under 50% inhibition at 10 µM. In kind it is cell membranes, CHO-K1, Membrane.
Sequence of Mu-type opioid receptor (P35372 whole entry): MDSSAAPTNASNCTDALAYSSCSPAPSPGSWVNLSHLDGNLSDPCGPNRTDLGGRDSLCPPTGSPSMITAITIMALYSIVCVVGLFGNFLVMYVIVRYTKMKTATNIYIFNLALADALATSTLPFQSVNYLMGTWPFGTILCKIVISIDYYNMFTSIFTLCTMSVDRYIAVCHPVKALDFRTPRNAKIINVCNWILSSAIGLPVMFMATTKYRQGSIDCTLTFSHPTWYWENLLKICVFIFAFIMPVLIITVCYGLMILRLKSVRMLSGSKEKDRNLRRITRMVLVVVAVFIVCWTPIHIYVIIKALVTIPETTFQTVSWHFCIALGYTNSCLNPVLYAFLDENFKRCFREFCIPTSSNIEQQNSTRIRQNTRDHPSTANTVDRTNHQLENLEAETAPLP
Test [3] can be described thus: DRUGMATRIX: Interleukin IL-1 radioligand binding (ligand: [125I] interleukin 1beta). The settings on record: nih3t3; Not Active = under 50% inhibition at 10 µM. In kind it is cell membranes, Membrane.
Test [4] concerns the target Kappa-type opioid receptor (Homo sapiens, UniProt P41145). Put plainly: DRUGMATRIX: Opiate kappa (OP2, KOP) radioligand binding (ligand: [3H] Diprenorphine). The class given is cell membranes, HEK293, Membrane. The settings on record: hek293; Not Active = under 50% inhibition at 10 µM.
For another test, the target named is Histamine H2 receptor (Homo sapiens, UniProt P25021). In kind it is cell membranes, CHO-K1, Membrane. Also: in other assays of this panel Not Active means under 50% inhibition at 10 µM.
Sequence of Histamine H2 receptor (P25021 whole entry): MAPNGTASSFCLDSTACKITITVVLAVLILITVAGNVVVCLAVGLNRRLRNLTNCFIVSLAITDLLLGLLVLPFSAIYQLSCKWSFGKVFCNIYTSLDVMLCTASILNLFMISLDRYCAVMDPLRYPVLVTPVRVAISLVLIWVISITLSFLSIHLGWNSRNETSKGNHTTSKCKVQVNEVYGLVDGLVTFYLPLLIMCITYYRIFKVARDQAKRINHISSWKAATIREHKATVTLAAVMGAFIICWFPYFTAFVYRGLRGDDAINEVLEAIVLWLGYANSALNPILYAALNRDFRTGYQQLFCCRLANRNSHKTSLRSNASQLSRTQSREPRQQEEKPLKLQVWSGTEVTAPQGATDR

Sequence of Kappa-type opioid receptor (P41145 whole entry): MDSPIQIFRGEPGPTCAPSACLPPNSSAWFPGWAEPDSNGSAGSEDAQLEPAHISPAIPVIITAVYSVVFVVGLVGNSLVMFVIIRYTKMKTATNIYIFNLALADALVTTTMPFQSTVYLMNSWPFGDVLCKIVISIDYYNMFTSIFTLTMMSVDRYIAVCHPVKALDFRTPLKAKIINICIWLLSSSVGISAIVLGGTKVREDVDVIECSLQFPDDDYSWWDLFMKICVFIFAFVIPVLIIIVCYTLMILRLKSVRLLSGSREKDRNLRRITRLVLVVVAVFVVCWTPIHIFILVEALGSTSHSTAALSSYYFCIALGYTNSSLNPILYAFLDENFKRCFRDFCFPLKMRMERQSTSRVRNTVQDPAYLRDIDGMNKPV

In the case of `C[N+](C)(C)CCOC(N)=O.[Cl-]` [CARBACHOL], the half-inhibitory concentration (IC50) entry (in test [1]; in test [2]; on Mu-type opioid receptor; in test [3]; in test [4]; against Histamine H2 receptor (cho-k1)) was “Not Active” throughout. Moreover, in test [3], the inhibition constant Ki (as a rule, a measure of affinity in units of concentration, obtained from inhibition or displacement) is on record as “Not Active”.

On to `C[C@]12CC[C@@H](O)C[C@@H]1CC[C@@H]1[C@@H]2CC[C@]2(C)C(=O)CC[C@@H]12` [ANDROSTERONE], for which the half-inhibitory concentration (IC50) result (in test [1]; in test [2]; on Mu-type opioid receptor; in test [3]; in test [4]; on Histamine H2 receptor (cho-k1)) was “Not Active” each time. In addition, the Ki result in test [3] is recorded as “Not Active”.

Take `C[C@H](C(=O)O)c1ccc2oc(-c3ccc(F)cc3)nc2c1` [FLUNOXAPROFEN]: the IC50 result (in test [1]; in test [2]; at Mu-type opioid receptor; in test [3]; in test [4]; at Histamine H2 receptor (cho-k1)) was “Not Active” throughout. Besides, in test [3], the Ki result is on record as “Not Active”.

COPPER(II) OXIDE: the 50% inhibitory concentration (IC50) entry (in test [1]; in test [2]; in test [3]; at Histamine H2 receptor (cho-k1)) was “Not Active” throughout. The Ki result (in test [1]; in test [2]; in test [3]; on Histamine H2 receptor (cho-k1)) was “Not Active” in each case.

Consider `NC(=O)CN1CCCC1=O`, for which the IC50 result (in test [1]; in test [2]; on Mu-type opioid receptor; in test [3]; in test [4]; against Histamine H2 receptor (cho-k1)) was “Not Active” each time. Further, in test [3], the Ki result was “Not Active”.

Take `O=C1c2ccccc2C(=O)C1c1ccccc1` [PHENINDIONE]: the 50% inhibitory concentration (IC50) result (in test [1]; in test [2]; on Mu-type opioid receptor; in test [3]; in test [4]; against Histamine H2 receptor (cho-k1)) was “Not Active” each time. For the same molecule, the Ki entry in test [3] is given as “Not Active”.

On to `CCN1C[C@]2(COC)[C@H](O)C[C@H](OC)[C@@]34[C@@H]5C[C@@]6(O)[C@H](OC(=O)c7ccccc7)[C@@H]5[C@@](OC(C)=O)([C@@H]([C@H](OC)[C@H]23)[C@@H]14)[C@@H](O)[C@@H]6OC` [ACONITINE], for which the IC50 entry (in test [1]; in test [2]; in test [3]; against Histamine H2 receptor (cho-k1)) was “Not Active” each time. For the same molecule, the Ki result in test [3] is “Not Active”.

As to `O=C(NCCN1CCOCC1)c1ccc(Cl)cc1` [MOCLOBEMIDE], the IC50 result (in test [1]; in test [2]; on Mu-type opioid receptor; in test [3]; in test [4]; against Histamine H2 receptor (cho-k1)) was “Not Active” each time. Further, in test [3], the inhibitory constant (Ki) entry was “Not Active”.

On to `O=C(O)COC(=O)Cc1ccccc1Nc1c(Cl)cccc1Cl` [ACECLOFENAC], for which the IC50 entry (in test [1]; in test [2]; on Mu-type opioid receptor; in test [3]; in test [4]; on Histamine H2 receptor (cho-k1)) was “Not Active” each time. In test [3], the Ki result is given as “Not Active”.

Take `COc1cc(/C=C/C(=O)O)ccc1O` [FERULATE]: the half-maximal inhibitory concentration (IC50) result (in test [1]; in test [2]; on Mu-type opioid receptor; in test [3]; in test [4]; against Histamine H2 receptor (cho-k1)) was “Not Active” throughout. Besides, the inhibitory constant (Ki) entry in test [3] was “Not Active”.

Turning to POVIDONE, the IC50 entry (in test [1]; in test [2]; in test [3]; against Histamine H2 receptor (cho-k1)) was “Not Active” each time. Moreover, the Ki entry (in test [1]; in test [2]; in test [3]; at Histamine H2 receptor (cho-k1)) was “Not Active” each time.

Consider CHROMIC CHLORIDE, for which the IC50 result (in test [1]; in test [2]; in test [3]; at Histamine H2 receptor (cho-k1)) was “Not Active” each time. Besides, the Ki result (in test [1]; in test [2]; in test [3]; on Histamine H2 receptor (cho-k1)) was “Not Active” each time.

Turning to `Nc1ccc(Cc2ccc(N)cc2)cc1`, the half-inhibitory concentration (IC50) result (in test [1]; in test [2]; in test [3]; against Histamine H2 receptor (cho-k1)) was “Not Active” each time. In addition, the inhibition constant Ki entry in test [3] is “Not Active”.

Take `COc1cc([C@@H]2c3cc4c(cc3[C@H](O)[C@H]3COC(=O)[C@H]23)OCO4)cc(OC)c1OC` [PODOFILOX]: the IC50 result (in test [1]; in test [2]; in test [3]; at Histamine H2 receptor (cho-k1)) was “Not Active” each time. Further, the Ki result in test [3] is “Not Active”.

As for `Cc1cc(C(C)(C)C)c(O)c(C)c1CC1=NCCN1` [OXYMETAZOLINE], the concentration for half-maximal inhibition (IC50) result (in test [2]; at Mu-type opioid receptor; in test [3]; in test [4]; against Histamine H2 receptor (cho-k1)) was “Not Active” throughout. The Ki entry in test [3] was “Not Active”.

In the case of `C=C(Cl)Cl` [1,1-DICHLOROETHENE], the IC50 entry (in test [1]; in test [2]; in test [3]; on Histamine H2 receptor (cho-k1)) was “Not Active” throughout. Moreover, the Ki result in test [3] is “Not Active”.

`ClC1=C(Cl)[C@]2(Cl)[C@@H]3[C@@H]4C[C@@H]([C@H]5O[C@@H]45)[C@@H]3[C@@]1(Cl)C2(Cl)Cl` [DIELDRIN]: the half-maximal inhibitory concentration (IC50) result (in test [1]; in test [2]; in test [3]; at Histamine H2 receptor (cho-k1)) was “Not Active” in each case. The Ki entry in test [3] is reported as “Not Active”.

Consider `CNC[C@H](O)c1ccc(O)c(O)c1` [EPINEPHRINE], for which the IC50 entry (in test [2]; at Mu-type opioid receptor; in test [3]; in test [4]; against Histamine H2 receptor (cho-k1)) was “Not Active” each time. Moreover, the Ki result in test [3] is on record as “Not Active”.

`C=CCO` [ALLYL ALCOHOL]: the IC50 entry (in test [1]; in test [2]; in test [3]; against Histamine H2 receptor (cho-k1)) was “Not Active” throughout. In addition, the Ki entry in test [3] was “Not Active”.

For CARBOXYMETHYLCELLULOSE, the IC50 result (in test [1]; in test [2]; in test [3]; against Histamine H2 receptor (cho-k1)) was “Not Active” each time. Also, the Ki result (in test [1]; in test [2]; in test [3]; at Histamine H2 receptor (cho-k1)) was “Not Active” each time.

For the molecule `C=CCN1CC[C@]23c4c5ccc(O)c4O[C@H]2/C(=N/N=C2\CC[C@@]4(O)[C@H]6Cc7ccc(O)c8c7[C@@]4(CCN6CC=C)[C@H]2O8)CC[C@@]3(O)[C@H]1C5` [NALOXONAZINE], the 50% inhibitory concentration (IC50) entry (in test [1]; in test [2]; in test [3]; against Histamine H2 receptor (cho-k1)) was “Not Active” in each case. In test [3], the Ki entry is listed as “Not Active”.

Turning to `CC(CN1c2ccccc2Sc2ccccc21)N(C)C` (configuration not stated) [PROMETHAZINE], the IC50 (commonly the concentration needed to halve the response being measured) was “Not Active” in test [2]; “Not Active” on Mu-type opioid receptor; “Not Active” in test [3]; “Not Active” in test [4]; 1160 nM on Histamine H2 receptor (read-out: IC50). In addition, the Ki entry in test [3] is “Not Active”; at Histamine H2 receptor (read-out: Ki) it was 1150 nM.

With `O=C(O)CNCP(=O)(O)O` [GLYPHOSATE], the IC50 entry (in test [1]; in test [2]; in test [3]; at Histamine H2 receptor (cho-k1)) was “Not Active” in each case. Also, the Ki entry in test [3] is given as “Not Active”.
